Results: US4440904A, “Nonapeptide anti-secretory agents” (American Home Products Corporation, priority 1983, dated 1984)
Bridge positions count the residues as written; N and C are the ends. Square brackets hold non-standard residues; d marks the D form. Peptide text beside a SMILES is read from it.

What was measured:
growth hormone (GH) = experiment: Growth hormone suppression in arginine-stimulated, Nembutal-anesthetized rats (GH by radioimmunoassay); type: in vivo, rat; settings: for GH: albino male rats, time 15 minutes, arginine stimulation, saline control 90 ± 14, *p <0.01
Method: The product of the preceding example illustrates the activity of the compounds of this invention for growth hormone suppression in the following standard procedure:
Albino male rats are administered Nembutal intraperitoneally at a dose of 50 milligrams per kilogram. Fifteen minutes later a subcutaneous injection of the compound of Example 2 or physiological saline (control) is administered. Ten minutes later 0.5 milliliters of arginine (300 milligrams per milliliter, pH 7.2) is injected into the heart. Five minutes after receipt of the arginine the rats are decapitated and blood is collected into trasylol-EDTA. An appropriate aliquot is assayed for growth hormone (GH) by radioimmunoassay.

total acid output = experiment: Gastric anti-secretory activity in pylorus-ligated rats; type: in vivo, rat; settings: male Sprague-Dawley rats, pyloric ligation, 2 milligram per kilogram subcutaneous, four-hour test period
Method: Male Charles River rats of Sprague-Dawley strain and 190 to 240 grams body weight are food deprived for 24 hours with water ad libitum until the test. Groups of ten rats each are assigned to either control or drug treatment. Pyloric ligation was performed under ether anesthesia through a midline laparotomy, and either control vehicle (0.25 methylcellulose) or drug in control vehicle was administered subcutaneously. The rats are sacrificed by CO2 asphyxiation four hours after pyloric ligation. The stomachs are removed and the gastric contents emptied into graduated centrifuge tubes. The gastric samples are centrifuged for 20 minutes and those obviously contaminated by food, blood or feces are discarded. The volume of gastric fluid is recorded and the acid concentration of 1.0 milliliter sample aliquots is measured by electrometric titration to pH 7.0 with 0.1 N NaOH. The calculated product of gastric volume (ml/4 hr) and acid concentration (mEq/L) estimates the total acid output (TAO, mEq/4 hr) over the four-hour test period.

Row | SMILES | GH (growth hormone (GH); dose 200 μg/kg subcutaneous) [ng/mL] | GH (growth hormone (GH); dose 1,000 μg/kg subcutaneous) [ng/mL] | growth hormone suppression potency compared with somatostatin (growth hormone (GH); rats, subcutaneous) | decrease of total acid output (total acid output) [%]
1 | C[C@@H](O)[C@@H]1NC(=O)[C@H](CCCCN)NC(=O)[C@@H](Cc2c[nH]c3ccccc23)NC(=O)[C@H](Cc2ccccc2)NC(=O)[C@@H](NC(=O)[C@H](Cc2ccc(O)cc2)NC(=O)[C@@H](N)Cc2c[nH]cn2)CSSC[C@@H](C(=O)N[C@@H](Cc2ccccc2)C(=O)O)NC1=O [Example 2, L-Histidyl-L-tyrosyl-L-cysteinyl-L-phenylalanyl-D-tryptophyl-L-lysyl-L-threonyl-L-cysteinyl-L-phenylalanine cyclic (3-8) disulfide] (H-HYCF[dW]KTCF-OH; disulfide 3-8) | 31 ± 10 | 41 ± 8 | substantially equipotent with somatostatin | 73
2 | C[C@H](N)C(=O)NCC(=O)N[C@H]1CSSC[C@@H](C(=O)O)NC(=O)[C@H](CO)NC(=O)[C@H]([C@@H](C)O)NC(=O)[C@H](Cc2ccccc2)NC(=O)[C@H]([C@@H](C)O)NC(=O)[C@H](CCCCN)NC(=O)[C@H](Cc2c[nH]c3ccccc23)NC(=O)[C@H](Cc2ccccc2)NC(=O)[C@H](Cc2ccccc2)NC(=O)[C@H](CC(N)=O)NC(=O)[C@H](CCCCN)NC1=O [Somatostatin, reference compound] | 34 ± 3 |  |  | 
